Assays:
[1] = system: Soybean variety Latham EX32124 CystX; experiment: Greenhouse: 2,4-D LV4 drizzled onto soil of potted plants, pod and node counts; assay type: in vivo; settings: for Average pods per normal node / Megacluster nodes / Normal nodes / Total nodes with pods / Pods on megacluster nodes / Pods on normal nodes / Average pods per megacluster node: 2 plants/pot; for Pods on megacluster nodes / Pods on normal nodes / Total pods per pot (2 plants): immature pods
Experimental: Soybean variety ‘Latham EX32124 CystX’ was planted in 8.5 inch diameter pots and grown under lights in a greenhouse. Four seeds each were planted and later thinned to 2 plants per plot for each of 5 treatment rates of 0.47, 0.94, 1.88, 3.76, and 7.52 pounds a.e. of 2,4-D per acre. […] When the soybean plants were at the stage of growth in which pods are 3/16 inch length at one of the two uppermost nodes, the number of beginning pods was observed.
At this stage, household fertilizer was added to the plants along with water, and the number of nodes and pods was observed approximately ten days later, as shown in Table 3. Pod counts were for 2 plants per pot.

[2] = system: soybean cultivars L2711R2X, L3385R2; experiment: Field 2012: 2,4-D Low Vol 4 + crop oil drizzled onto soil at R1 stage, Laurel, Iowa (Table 2b); assay type: in vivo
Experimental: Plants were treated by drizzling via low pressure spraying the 2,4-D solution onto the soil along each side of the rows when plants are at the R1 stage of growth. The date of planting was May 15, 2012 and the date of harvest was Oct. 2, 2012 at plots in Alexander, Iowa (Table 2a) and Laurel, Iowa (Table 2b). Plants were grown from Roundup Ready seed and were sprayed with glyphosate for weed control. Plants were treated with between 1X and 5.5X of 2,4-D solution mixed with crop oil at 15.3 ounces of 2,4-D Low Vol 4 plus 0.32 ounces crop oil per gallon, where 1X is equivalent to approximately 0.45 pounds acid equivalent of 2,4-D. Two repetitions were performed at different plots. […] The moisture percentages were used in correcting each yield to a 13% moisture basis.

[3] = 1.0X Rate, L2711R2X, 1X~0.45 lb a.e.
[4] = 1.0X Rate, L3385R2, 1X~0.45 lb a.e.
[5] = 1.5X Rate, L2711R2X, 1X~0.45 lb a.e.
[6] = 1.5X Rate, L3385R2, 1X~0.45 lb a.e.
[7] = 2.0X Rate, L2711R2X, 1X~0.45 lb a.e.
[8] = 2.0X Rate, L3385R2, 1X~0.45 lb a.e.
[9] = 2.5X Rate, L2711R2X, 1X~0.45 lb a.e.
[10] = 2.5X Rate, L3385R2, 1X~0.45 lb a.e.
[11] = 3.0X Rate, L2711R2X, 1X~0.45 lb a.e.
[12] = 3.0X Rate, L3385R2, 1X~0.45 lb a.e.
[13] = 3.5X Rate, L2711R2X, 1X~0.45 lb a.e.
[14] = 3.5X Rate, L3385R2, 1X~0.45 lb a.e.
[15] = 4.0X Rate, L2711R2X, 1X~0.45 lb a.e.
[16] = 4.0X Rate, L3385R2, 1X~0.45 lb a.e.
[17] = 4.5X Rate, L2711R2X, 1X~0.45 lb a.e.
[18] = 4.5X Rate, L3385R2, 1X~0.45 lb a.e.
[19] = 5.0X Rate, L2711R2X, 1X~0.45 lb a.e.
[20] = 5.0X Rate, L3385R2, 1X~0.45 lb a.e.
[21] = 5.5X Rate, L2711R2X, 1X~0.45 lb a.e.
[22] = 5.5X Rate, L3385R2, 1X~0.45 lb a.e.
[23] = Average over 1.0X-3.0X Rates, L2711R2X
[24] = Average over 1.0X-3.0X Rates, L3385R2
[25] = Average over 1.0X-5.5X Rates, L2711R2X
[26] = Average over 1.0X-5.5X Rates, L3385R2
[27] = Overall location average, all rates, both cultivars

## O=C(O)COc1ccc(Cl)cc1Cl [2,4-D, 2,4-Dichlorophenoxyacetic acid]
[1]; 0.47 lbs a.e. per acre
  Beginning pods: Normal
[1]; 0.47 lbs a.e.
  Average pods per normal node: 3.9
  Megacluster nodes: 0
  Normal nodes: 7
  Total nodes with pods: 7
  Pods on megacluster nodes: 0
  Pods on normal nodes: 27
  Total pods per pot (2 plants): 27
[1]; 0.94 lbs a.e. per acre
  Beginning pods: huge clusters of pods (megaclusters)
[1]; 0.94 lbs a.e.
  Average pods per megacluster node: 12.5
  Average pods per normal node: 3.6
  Megacluster nodes: 6
  Normal nodes: 5
  Total nodes with pods: 11
  Pods on megacluster nodes: 75
  Pods on normal nodes: 18
  Total pods per pot (2 plants): 93
[1]; 0.94 pounds a.e. of 2,4-D
  number of pods versus untreated plants: over double the number of pods
[1]; 1.88, 3.76, and 7.52 pounds a.e. of 2,4-D per acre
  total number of pods per plant compared to the control: increased total number of pods per plant
[1]; 1.88 lbs a.e. per acre
  Beginning pods: huge clusters of pods (megaclusters)
[1]; 1.88 lbs a.e.
  Average pods per megacluster node: 6.0
  Average pods per normal node: 3.4
  Megacluster nodes: 5
  Normal nodes: 5
  Total nodes with pods: 10
  Pods on megacluster nodes: 30
  Pods on normal nodes: 17
  Total pods per pot (2 plants): 49
[1]; 3.76 lbs a.e. per acre
  Beginning pods: Normal
[1]; 3.76 lbs a.e.
  Average pods per megacluster node: 9.0
  Average pods per normal node: 4.8
  Megacluster nodes: 3
  Normal nodes: 5
  Total nodes with pods: 8
  Pods on megacluster nodes: 27
  Pods on normal nodes: 24
  Total pods per pot (2 plants): 51
[1]; 7.52 lbs a.e. per acre
  Beginning pods: Normal
[1]; 7.52 lbs a.e.
  Average pods per megacluster node: 9.0
  Average pods per normal node: 3.6
  Megacluster nodes: 2
  Normal nodes: 7
  Total nodes with pods: 9
  Pods on megacluster nodes: 18
  Pods on normal nodes: 25
  Total pods per pot (2 plants): 43
[1]; 7.52 pounds a.e. rate
  leaf damage: some yellowing of leaves
[1]; between 0.47 and 7.52 pounds a.e. of 2,4-D per acre
  pod set: excessive numbers of pods at every node
[1]; treated plants, 0.47-7.52 pounds a.e. per acre
  mature slower and stay greener, longer than untreated plants: approximately 2 weeks
[2]; [3]
  Average Yield: 64.93 Bu/A
  Repetition 1 Weight: 5.6 Lbs
  Repetition 1 Yield: 62.69 Bu/A
  Repetition 2 Weight: 6.0 Lbs
  Repetition 2 Yield: 67.16 Bu/A
[2]; [4]
  Average Yield: 72.50 Bu/A
  Repetition 1 Weight: 6.7 Lbs
  Repetition 1 Yield: 73.40 Bu/A
  Repetition 2 Weight: 6.5 Lbs
  Repetition 2 Yield: 71.60 Bu/A
[2]; [5]
  Average Yield: 67.20 Bu/A
  Repetition 1 Weight: 6.6 Lbs
  Repetition 1 Yield: 73.88 Bu/A
  Repetition 2 Weight: 5.4 Lbs
  Repetition 2 Yield: 60.51 Bu/A
[2]; [6]
  Average Yield: 75.70 Bu/A
  Repetition 1 Weight: 6.8 Lbs
  Repetition 1 Yield: 74.34 Bu/A
  Repetition 2 Weight: 6.9 Lbs
  Repetition 2 Yield: 77.07 Bu/A
[2]; [7]
  Average Yield: 63.41 Bu/A
  Repetition 1 Weight: 5.7 Lbs
  Repetition 1 Yield: 64.01 Bu/A
  Repetition 2 Weight: 5.6 Lbs
  Repetition 2 Yield: 62.82 Bu/A
[2]; [8]
  Average Yield: 70.93 Bu/A
  Repetition 1 Weight: 6.3 Lbs
  Repetition 1 Yield: 70.22 Bu/A
  Repetition 2 Weight: 6.4 Lbs
  Repetition 2 Yield: 71.64 Bu/A
[2]; [9]
  Average Yield: 63.35 Bu/A
  Repetition 1 Weight: 5.7 Lbs
  Repetition 1 Yield: 63.87 Bu/A
  Repetition 2 Weight: 5.6 Lbs
  Repetition 2 Yield: 62.82 Bu/A
[2]; [10]
  Average Yield: 71.91 Bu/A
  Repetition 1 Weight: 6.3 Lbs
  Repetition 1 Yield: 70.60 Bu/A
  Repetition 2 Weight: 6.5 Lbs
  Repetition 2 Yield: 73.23 Bu/A
[2]; [11]
  Average Yield: 63.84 Bu/A
  Repetition 1 Weight: 5.5 Lbs
  Repetition 1 Yield: 61.50 Bu/A
  Repetition 2 Weight: 5.9 Lbs
  Repetition 2 Yield: 66.19 Bu/A
[2]; [12]
  Average Yield: 71.91 Bu/A
  Repetition 1 Weight: 6.6 Lbs
  Repetition 1 Yield: 74.12 Bu/A
  Repetition 2 Weight: 6.2 Lbs
  Repetition 2 Yield: 69.70 Bu/A
[2]; [13]
  Repetition 1 Weight: 5.7 Lbs
  Repetition 1 Yield: 63.74 Bu/A
[2]; 3.5X Rate, L2711R2X, 1X~0.45 lb a.e., repetition 1 only
  Average Yield: 63.74 Bu/A
[2]; [14]
  Repetition 1 Weight: 6.3 Lbs
  Repetition 1 Yield: 68.94 Bu/A
[2]; 3.5X Rate, L3385R2, 1X~0.45 lb a.e., repetition 1 only
  Average Yield: 68.94 Bu/A
[2]; [15]
  Repetition 1 Weight: 6.1 Lbs
  Repetition 1 Yield: 68.28 Bu/A
[2]; 4.0X Rate, L2711R2X, 1X~0.45 lb a.e., repetition 1 only
  Average Yield: 68.28 Bu/A
[2]; [16]
  Repetition 1 Weight: 6.7 Lbs
  Repetition 1 Yield: 74.76 Bu/A
[2]; 4.0X Rate, L3385R2, 1X~0.45 lb a.e., repetition 1 only
  Average Yield: 74.76 Bu/A
[2]; [17]
  Repetition 1 Weight: 6.3 Lbs
  Repetition 1 Yield: 70.60 Bu/A
[2]; 4.5X Rate, L2711R2X, 1X~0.45 lb a.e., repetition 1 only
  Average Yield: 70.60 Bu/A
[2]; [18]
  Repetition 1 Weight: 6.6 Lbs
  Repetition 1 Yield: 72.78 Bu/A
[2]; 4.5X Rate, L3385R2, 1X~0.45 lb a.e., repetition 1 only
  Average Yield: 72.78 Bu/A
[2]; [19]
  Repetition 1 Weight: 5.9 Lbs
  Repetition 1 Yield: 66.11 Bu/A
[2]; 5.0X Rate, L2711R2X, 1X~0.45 lb a.e., repetition 1 only
  Average Yield: 66.11 Bu/A
[2]; [20]
  Repetition 1 Weight: 6.6 Lbs
  Repetition 1 Yield: 74.12 Bu/A
[2]; 5.0X Rate, L3385R2, 1X~0.45 lb a.e., repetition 1 only
  Average Yield: 74.12 Bu/A
[2]; [21]
  Repetition 1 Weight: 5.4 Lbs
  Repetition 1 Yield: 60.45 Bu/A
[2]; 5.5X Rate, L2711R2X, 1X~0.45 lb a.e., repetition 1 only
  Average Yield: 60.45 Bu/A
[2]; [22]
  Repetition 1 Weight: 6.3 Lbs
  Repetition 1 Yield: 70.37 Bu/A
[2]; 5.5X Rate, L3385R2, 1X~0.45 lb a.e., repetition 1 only
  Average Yield: 70.37 Bu/A
[2]; [23]
  Repetition 2 Weight: 5.7 Lbs
  Repetition 2 Yield: 63.90 Bu/A
[2]; [24]
  Repetition 2 Weight: 6.5 Lbs
  Repetition 2 Yield: 72.65 Bu/A
[2]; [25]
  Average Yield: 65.19 Bu/A
  Repetition 1 Weight: 5.9 Lbs
  Repetition 1 Yield: 65.51 Bu/A
[2]; [26]
  Average Yield: 72.39 Bu/A
  Repetition 1 Weight: 6.5 Lbs
  Repetition 1 Yield: 72.36 Bu/A
[2]; [27]
  Average Yield: 68.79 Bu/A
  Repetition 1 Weight: 6.2 Lbs
  Repetition 1 Yield: 68.94 Bu/A
  Repetition 2 Weight: 6.1 Lbs
  Repetition 2 Yield: 68.27 Bu/A

Reference: patent US20140371074A1, “METHOD TO INCREASE PLANT YIELD” (priority 2012, published 2014)
